As usually defined, the pIC50 is the IC50 on a negative log10 scale, so that one unit is a factor of ten. A low value points to a high IC50.

Series [1] deals with SARS-CoV. Briefly: microbe, parasite or virus in culture. The note with it: Severe acute respiratory syndrome-related coronavirus, Frankfurt1, Vero.
Series [2] in a line: in vitro. The following applies: chlorocebus sabaeus, Vero E6 cells.
Series [3] concerns SARS-CoV. The class given is functional, organism-based. The following applies: Severe acute respiratory syndrome-related coronavirus; Frankfurt1; Vero; 50 to 70 uM.
The test system of series [4] is SARS-CoV. The class given is functional, organism-based. The following applies: Severe acute respiratory syndrome-related coronavirus; Frankfurt1; Vero; 20 uM.
Series [5] has as its system Vero. The note with it: chlorocebus sabaeus.

Molecules are shown by their SMILES. pIC50: −log10 of the molar value. Calls of active or inactive are those of the source. The calls are words filed in the database; no cut-off is given here. Where only a bound is given, the exact number is not on record here.

Take `OCC(CO)CCn1cnc2c(Cl)ncnc21`: in series [1], the negative logarithm of the IC50 (pIC50) is < 3.52. The same measure, in the same setting: the value for `OCC(CCn1cnc2c(Cl)ncnc21)COCc1ccccc1` (stereo not given) was < 3.52.

In the case of `NC(=O)c1ncn([C@@H]2O[C@H](CO)[C@@H](O)[C@H]2O)n1` [RIBAVIRIN], the CC50 in series [2] was > 850 µM. The compound also had a pIC50 in series [1] of 4.09. On the same counts, the results for `NC(=O)c1ncn([C@@H]2O[C@H](CO)[C@@H](O)[C@H]2O)c1O` [MIZORIBINE] are > 700 µM and 4.87. On to `CSc1ncnc2c1ncn2[C@@H]1O[C@H](CO)[C@@H](O)[C@H]1O`, for which the pIC50 in series [1] was < 3.52. The same measure, in the same setting: under `COc1ncnc2c1ncn2[C@@H]1O[C@H](CO)[C@@H](O)[C@H]1O` stands < 3.52.

Regarding `OCC1C(COCc2ccccc2)CC1n1cnc2c(Cl)ncnc21` (stereo not given), in series [3], the outcome was Active. For the same compound, the CC50 in series [2] was 78 µM. The same compound had a pIC50 in series [1] of 4.84.

In the case of `OC[C@H]1O[C@@H](n2cnc3c(Cl)ncnc32)C[C@@H]1O`, the negative-log IC50 (pIC50) in series [1] is < 3.52. On to `O[C@@H]1[C@H](O)[C@@H](COCc2ccccc2)O[C@H]1n1cnc2c(Cl)ncnc21`, for which the result in series [3] was Active. In addition, in series [2], the CC50 amounted to 174 µM. In series [1], this compound had a pIC50 of 3.97.

In the case of `OC[C@@H]1C[C@@H](O)[C@H](n2cnc3c(Cl)ncnc32)O1`, the pIC50 in series [1] was < 3.52.

`OCC1CC(n2cnc3c(Cl)ncnc32)C1CO` (stereo not given): in series [1], the pIC50 is < 3.52. In the case of `Nc1nc(Cl)c2ncn([C@@H]3O[C@H](CO)[C@@H](O)[C@H]3O)c2n1`, in series [1], the pIC50 was < 3.52.

Regarding `OC[C@H]1O[C@@H](n2cnc3c(Cl)ncnc32)[C@H](O)[C@@H]1O`, the outcome in series [4] was Active. Moreover, in series [5], the CC50 worked out at 279 µM.

Values taken from ChEMBL document CHEMBL1144631, “Synthesis and biological evaluation of nucleoside analogues having 6-chloropurine as anti-SARS-CoV agents” (Bioorg Med Chem Lett, 2007).
